From PMC10299089, “Heterologous expression of genes from a cyanobacterial endosymbiont highlights substrate exchanges with its diatom host” (PNAS Nexus, 2023)

B1: RintHH_3860 (InvB), neutral invertase (Richelia intracellularis HH01) (protein)
chain: MQPHKVILKDVEKDAWDTLEKTIIYYQGNPIGTVAALDSTANTLNYDQCFVRDFVVSALLFLIKGRTEIVRNFLKQTLKLQPKKKQLGTYKPGRGLMPASFKVTFNNGQEELEADFGENAIARVTPVDSSLWWIVLLRAYVVATKDYSLAYQDDFQQGIRLILDLCLATRFDMYPTLLVPDGACMIDRRLGIHGHPLEIQSLYYAALRAARELLICQGNEELVFAIDNRLPVLAAHIRKHYWIDLHRLNDIYRYRGEEYGKDAVNQFNIYVDSIPYSELDRWLPKGGGYLAGNVGPSQMDTRFFTLGNLMAVIIDLTTQEQSQAIMTLIEQRWDDLVGDMPMKITFPALENEEYKYVTGCDPKNIPWSYHNAGNWPVLMWMLAAACVKTNHRELMQRALTIAQERLKNDEWPEYYDGKQGRLIGRQSRKYQTWTIVGFLLAKEILAQPGSLSLISFDPFITKQVSQACELKFDYFDS
notes: synthetic gene in pET28b(+), expressed in E. coli; crude cell-free extract (purification unsuccessful)

Experiments:
[1] = molecular target: T1, RintHH_11820 (NatB), SBP of N-I transporter (Richelia intracellularis, UniProt M1WZ73); assay: intrinsic Trp fluorescence quenching; format: binding; details: excitation 280 nm, emission ~340 nm; ligand ~116 µM
T1 construct: mature protein, signal peptide removed, N-terminal His tag, E. coli, nickel column
T1 sequence (M1WZ73 24-438): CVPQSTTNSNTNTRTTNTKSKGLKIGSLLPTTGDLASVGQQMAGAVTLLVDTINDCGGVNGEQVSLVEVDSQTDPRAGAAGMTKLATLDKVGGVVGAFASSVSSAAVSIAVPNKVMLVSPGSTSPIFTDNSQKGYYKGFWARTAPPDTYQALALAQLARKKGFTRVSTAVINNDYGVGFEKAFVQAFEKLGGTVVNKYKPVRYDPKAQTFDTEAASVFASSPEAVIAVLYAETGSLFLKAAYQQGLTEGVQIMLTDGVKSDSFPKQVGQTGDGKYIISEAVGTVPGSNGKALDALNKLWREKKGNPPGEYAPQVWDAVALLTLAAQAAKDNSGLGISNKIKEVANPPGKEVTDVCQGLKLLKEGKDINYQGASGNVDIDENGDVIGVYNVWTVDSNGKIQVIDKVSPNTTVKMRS

[2] = molecular target: T2, RintHH_12770 (NatF), SBP of N-II transporter (Richelia intracellularis, UniProt M1WZB0); assay: intrinsic Trp fluorescence quenching; format: binding; details: excitation 280 nm, emission ~340 nm; ligand ~7 µM
T2 construct: mature protein, signal peptide removed, N-terminal His tag, E. coli, nickel column
T2 sequence (M1WZB0 22-348 limits assumed): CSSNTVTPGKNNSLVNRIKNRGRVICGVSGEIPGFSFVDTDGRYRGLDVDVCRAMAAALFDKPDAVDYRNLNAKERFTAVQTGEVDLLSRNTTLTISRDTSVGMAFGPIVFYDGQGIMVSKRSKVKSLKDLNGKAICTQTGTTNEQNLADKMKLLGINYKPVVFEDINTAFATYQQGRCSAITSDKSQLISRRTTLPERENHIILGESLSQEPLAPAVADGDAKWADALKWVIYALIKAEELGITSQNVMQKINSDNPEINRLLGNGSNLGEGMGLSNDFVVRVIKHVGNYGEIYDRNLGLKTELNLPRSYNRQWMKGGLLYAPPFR

[3] = molecular target: T3, RintHH_17430 (GlsR), periplasmic SBP (Richelia intracellularis, UniProt M1X141); assay: intrinsic Trp fluorescence quenching; format: binding; details: 0.02 mM protein, excitation 280 nm, emission ~340 nm
T3 construct: mature protein, signal peptidase II signal peptide removed, N-terminal Cys fused to Strep-tag II; pET28b(+), E. coli, StrepTrap
T3 sequence (M1X141 41-442): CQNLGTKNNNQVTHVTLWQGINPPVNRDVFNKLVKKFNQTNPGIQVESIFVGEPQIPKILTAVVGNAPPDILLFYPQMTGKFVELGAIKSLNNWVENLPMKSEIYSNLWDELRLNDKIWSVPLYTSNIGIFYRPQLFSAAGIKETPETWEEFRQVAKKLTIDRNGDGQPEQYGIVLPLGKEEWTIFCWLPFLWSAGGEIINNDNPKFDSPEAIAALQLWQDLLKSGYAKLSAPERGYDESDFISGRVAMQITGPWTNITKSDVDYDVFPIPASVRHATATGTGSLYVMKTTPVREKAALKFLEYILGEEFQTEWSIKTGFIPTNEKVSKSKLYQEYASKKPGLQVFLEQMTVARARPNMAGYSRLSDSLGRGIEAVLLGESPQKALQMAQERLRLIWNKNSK

[4] = substrate: OC[C@H]1O[C@@](CO)(O[C@H]2O[C@H](CO)[C@@H](O)[C@H](O)[C@H]2O)[C@@H](O)[C@@H]1O; assay: glucose production by HPLC (Dionex), E. coli cell-free extract; format: biochemical, Richelia intracellularis; details: pH 7, 30 °C, 120 mM potassium phosphate, crude extract

| Molecule | % quenching [1] | also measured |
| --- | --- | --- |
| NCC(=O)O [Gly] | substantial quenching was produced by the neutral amino acids (L-Pro, L-Ala, L-Phe, Gly, and L-Leu) | – |
| C[C@H](N)C(=O)O [L-Ala] | substantial quenching was produced by the neutral amino acids (L-Pro, L-Ala, L-Phe, Gly, and L-Leu) | – |
| N[C@@H](CCC(=O)O)C(=O)O [L-Glu] | – | % quenching [2]: substantial quenching was only seen with L-Glu |
| CC(C)C[C@H](N)C(=O)O [L-Leu] | substantial quenching was produced by the neutral amino acids (L-Pro, L-Ala, L-Phe, Gly, and L-Leu) | – |
| O=C(O)[C@@H]1CCCN1 [L-Pro] | substantial quenching was produced by the neutral amino acids (L-Pro, L-Ala, L-Phe, Gly, and L-Leu) | – |
| OC[C@H]1O[C@@](CO)(O[C@H]2O[C@H](CO)[C@@H](O)[C@H](O)[C@H]2O)[C@@H](O)[C@@H]1O [sucrose] | – | % quenching at 1 μM [3]: ~ 22.5% |
| B1 | – | Km [4]: 25.7 mM |
